From patent publication US9580390B2, “Indazole compounds as kinase inhibitors and method of treating cancer with same” (University Health Network, priority 2011, dated 2017) come the findings set out here.

One assay addresses T1, human TTK (Homo sapiens, UniProt P33981).
T1 construct: amino terminal GST fusion of full length human TTK; purchased Invitrogen
T1 sequence (P33981 1-857): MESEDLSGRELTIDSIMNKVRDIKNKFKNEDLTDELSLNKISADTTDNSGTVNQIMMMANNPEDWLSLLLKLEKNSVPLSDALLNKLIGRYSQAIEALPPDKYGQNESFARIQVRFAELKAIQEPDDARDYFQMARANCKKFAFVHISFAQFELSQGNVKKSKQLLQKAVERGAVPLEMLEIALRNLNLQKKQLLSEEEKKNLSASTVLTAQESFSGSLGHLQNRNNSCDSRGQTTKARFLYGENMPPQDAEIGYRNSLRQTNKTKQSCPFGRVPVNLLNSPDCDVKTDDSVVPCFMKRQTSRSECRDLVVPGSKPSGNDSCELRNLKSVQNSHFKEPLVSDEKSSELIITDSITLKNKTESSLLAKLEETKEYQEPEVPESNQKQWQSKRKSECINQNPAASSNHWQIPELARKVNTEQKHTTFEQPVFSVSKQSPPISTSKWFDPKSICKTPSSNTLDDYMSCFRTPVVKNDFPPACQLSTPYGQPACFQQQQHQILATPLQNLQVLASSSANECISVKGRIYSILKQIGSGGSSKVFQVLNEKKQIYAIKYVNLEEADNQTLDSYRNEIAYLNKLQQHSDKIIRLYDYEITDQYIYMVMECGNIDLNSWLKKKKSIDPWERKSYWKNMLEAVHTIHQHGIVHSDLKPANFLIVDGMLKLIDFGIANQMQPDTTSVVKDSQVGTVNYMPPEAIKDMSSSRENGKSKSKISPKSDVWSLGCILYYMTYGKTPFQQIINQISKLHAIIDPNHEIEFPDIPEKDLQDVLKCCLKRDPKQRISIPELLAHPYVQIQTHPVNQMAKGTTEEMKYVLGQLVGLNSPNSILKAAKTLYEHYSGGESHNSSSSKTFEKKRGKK
Description: TTK inhibition assay (indirect ELISA). The class given is biochemical. Conditions: read-out: TTK IC50 Range.

Assay [1] deals with colon cancer cells (HCT116). Description: Cancer cell line growth inhibition (SRB assay). It is filed as cell-based. Particulars: Homo sapiens, HCT-116; read-out: Cancer Cell Line GI50 Range HCT116.
Assay [2] relates to ovarian cancer cells (PA-1). Description: Cancer cell line growth inhibition (SRB assay). Particulars: Homo sapiens, PA-1; read-out: Cancer Cell Line GI50 Range PA-1. The class given is cell-based.
The next assay concerns TICs (Colon 12). Description: Colon tumor-initiating cell growth inhibition (Alamar Blue). The class given is cell-based. Particulars: 216 h; Colon 12 TICs, 9 days; read-out: Tumor Initiating Cell GI50 Range Colon 12.
A further assay has as its system TICs (Ovarian 2393A). Description: Ovarian tumor-initiating cell growth inhibition (Alamar Blue). The class given is cell-based. Conditions: 144 h; Ovarian 2393A TICs, 6 days; read-out: Tumor Initiating Cell GI50 Range Ovarain 2393A.

For `CC(C)C[C@@H](NC(=O)c1ccc2[nH]nc(-c3ccc(N4CCN(C5COC5)CC4)cc3)c2c1)c1ccccc1Cl` [Example A300, (R)-N-(1-(2-chlorophenyl)-3-methylbutyl)-3-(4-(4-(oxetan-3-yl)piperazin-1-yl)phenyl)-1H-indazole-5-carboxamide], the IC50 on human TTK was below 0.1 µM. Further, the GI50 is below 0.1 µM in assay [1], below 0.1 µM in assay [2], below 0.1 µM with TICs (Colon 12) and 0.1 to 0.5 µM with TICs (Ovarian 2393A).
In the case of `CC(C)[C@H](NC(=O)c1ccc2[nH]nc(-c3ccc(OC4CC5CCC(C4)N5C4COC4)cc3)c2c1)c1ccccc1Cl` (stereo partly shown) [Example A335], on human TTK, the IC50 was below 0.1 µM. Also, the GI50 (in assay [1]; in assay [2]; in the assay on TICs (Colon 12); in the assay on TICs (Ovarian 2393A)) was below 0.1 µM throughout.
